On the set-up of series [1]: method as in earlier work. The note with it: cited from earlier work.
The nature of series [2]: Determination of peptide hydrophobicity with RP-HPLC (adjusted retention time). The format is physicochemical. The note with it: Table 3; adjusted retention time as hydrophobicity; RP-HPLC C18, linear 10–55% acetonitrile over 60 min, 0.1% TFA, 25.0 °C, UV 214 nm, triplicate. The method, boiled down:
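Peptides at 1 g/L in water with 0.1% TFA run on a C18 column (3.0 × 100 mm, 5 µm). Elution with a linear 10–55% acetonitrile gradient over 60 min, 0.1% TFA in both eluents, 0.5 mL/min, 25.0 ± 0.1 °C. Detection at 214 nm, in triplicate.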

The test system of another series is S. aureus ATCC 25923. The format is cell-based, Staphylococcus aureus. As to conditions: ATCC 25923, 18 h. The method, boiled down:
(§1)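 Lipopeptides, tested from 0.5 to 256 µg/mL, were incubated with bacteria (5 × 10^5 CFU/mL, MHB) for 18 h at 37 °C following CLSI guidance. Triplicate determinations gave the MIC as the lowest growth-inhibiting concentration.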

In series [3] the test system is S. aureus ATCC 33591 (MRSA). The format is cell-based, Staphylococcus aureus. As to conditions: ATCC 33591, 18 h. The method, boiled down: as §1
A further series has as its system P. aeruginosa ATCC 9027. It is filed as cell-based, Pseudomonas aeruginosa. As to conditions: ATCC 9027, 18 h. The method, boiled down: as §1
Another series relates to E. faecium ATCC 700221. It is filed as cell-based, Enterococcus faecium. The note with it: ATCC 700221, 18 h. The method, boiled down: as §1
Series [4] relates to A. baumannii ATCC BAA-1605. The format is cell-based, Acinetobacter baumannii. As to conditions: ATCC BAA-1605, 18 h. An outline of the steps:
as §1

Series [5] has as its system K. pneumoniae ATCC 700603. The format is cell-based, Klebsiella pneumoniae. The note with it: ATCC 700603, 18 h. The method, boiled down: as §1
Series [6] concerns human red blood cells (hRBCs). It is filed as cell-based. The note with it: red cells of human, 1 h. The method, boiled down:
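Fresh EDTA-anticoagulated human RBCs, PBS-washed, at 4% (v/v) final were exposed to lipopeptides at 0.5–256 µg/mL for 1 h at 37 °C. Released haemoglobin in supernatant read at 540 nm; PBS as 0% and 1% Triton X-100 as 100% haemolysis. Triplicates.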

A further series deals with K. aerogenes ATCC 13048. The format is cell-based, Klebsiella aerogenes. As to conditions: ATCC 13048, 18 h. The method, boiled down: as §1
Another series deals with C. albicans ATCC 10231. It is filed as cell-based, Candida albicans. As to conditions: ATCC 10231, 24 h, pH 7.

In brackets after ≈: the same amount, converted by molar mass. Residues, ends and D or L forms follow the SMILES beside them.

For `NCCCC[C@H](N)C(=O)O` [Lys, lysine], the “pKa of the side chain” value in [1] is 10.67.

For `CCCCCCCCCCCCCC(=O)N[C@@H](Cc1c[nH]c2ccccc12)C(=O)N[C@@H](CCCNC(=N)N)C(=O)N[C@@H](CCCNC(=N)N)C(N)=O` [compound 98, C14-WRR-NH2] (HELM PEPTIDE1{[CCCCCCCCCCCCCC(=O)[*:2]].W.R.R.[am]}$$$$V2.0), in series [2], the “tR’” value turned out to be 47.11 min. Moreover, the “MIC SA” value with S. aureus ATCC 25923 stood at 4 µg/mL (≈ 5.51 µM). In addition, the “MIC S” value in series [3] was 2 µg/mL (≈ 2.75 µM). In addition, in the series with P. aeruginosa ATCC 9027, the “MIC PA” value came to 8 µg/mL (≈ 11 µM). The “MIC E1” value in the series on E. faecium ATCC 700221 is listed as 8 µg/mL (≈ 11 µM). Moreover, the “MIC A” value in series [4] was 128 µg/mL (≈ 176 µM). Moreover, the “MIC K” value in series [5] was found to be 64 µg/mL (≈ 88.2 µM). Also, the HC50 in series [6] is on record as 36.91 (±0.89) µg/mL. The “MIC E2” value in the series with K. aerogenes ATCC 13048 amounted to 32 µg/mL (≈ 44.1 µM). Further, the “MIC CA” value in the series with C. albicans ATCC 10231 worked out at 4 µg/mL (≈ 5.51 µM).

As for `CCCCCCCCCCCC(=O)N[C@@H](Cc1ccc(O)cc1)C(=O)N[C@@H](CCCNC(=N)N)C(=O)N[C@@H](CCCNC(=N)N)C(N)=O` [compound 101, C12-YRR-NH2] (HELM PEPTIDE1{[CCCCCCCCCCCC(=O)[*:2]].Y.R.R.[am]}$$$$V2.0), the “tR’” value in [2] came out at 36.17 min. The “MIC SA” value against S. aureus ATCC 25923 was 8 µg/mL (≈ 11.9 µM). Further, in [3], the “MIC S” value is recorded as 8 µg/mL (≈ 11.9 µM). In addition, the “MIC PA” value against P. aeruginosa ATCC 9027 is reported as 16 µg/mL (≈ 23.7 µM). In addition, the “MIC E1” value against E. faecium ATCC 700221 is reported as 16 µg/mL (≈ 23.7 µM). In addition, in [4], the “MIC A” value is 32 µg/mL (≈ 47.4 µM). Besides, the “MIC K” value in [5] is on record as 128 µg/mL (≈ 190 µM). The HC50 in series [6] is listed as 123.08 (±1.12) µg/mL. Further, the “MIC E2” value against K. aerogenes ATCC 13048 worked out at 128 µg/mL (≈ 190 µM). The “MIC CA” value with C. albicans ATCC 10231 worked out at 32 µg/mL (≈ 47.4 µM).

Regarding `CCCCCCCCCCCCCC(=O)N[C@@H](Cc1ccc(O)cc1)C(=O)N[C@@H](CCCNC(=N)N)C(=O)N[C@@H](CCCNC(=N)N)C(N)=O` [compound 102, C14-YRR-NH2] (HELM PEPTIDE1{[CCCCCCCCCCCCCC(=O)[*:2]].Y.R.R.[am]}$$$$V2.0), in series [2], the “tR’” value worked out at 42.73 min. The “MIC SA” value against S. aureus ATCC 25923 amounted to 4 µg/mL (≈ 5.69 µM). The “MIC S” value in series [3] was 4 µg/mL (≈ 5.69 µM). The “MIC PA” value in the series with P. aeruginosa ATCC 9027 came out at 8 µg/mL (≈ 11.4 µM). Moreover, in the series on E. faecium ATCC 700221, the “MIC E1” value is given as 4 µg/mL (≈ 5.69 µM). The “MIC A” value in [4] came out at 32 µg/mL (≈ 45.5 µM). For the same compound, in series [5], the “MIC K” value is recorded as 32 µg/mL (≈ 45.5 µM). For the same compound, the HC50 in series [6] was 46.52 (±5.24) µg/mL. Also, the “MIC E2” value in the series on K. aerogenes ATCC 13048 came to 64 µg/mL (≈ 91 µM). For the same compound, in the series with C. albicans ATCC 10231, the “MIC CA” value came out at 4 µg/mL (≈ 5.69 µM).

Source of the values: publication PMC7024302, “Ultrashort Cationic Lipopeptides–Effect of N-Terminal Amino Acid and Fatty Acid Type on Antimicrobial Activity and Hemolysis” (Molecules, 2020).
